Experimental data reported in PubChem BioAssay AID256 (DTP/NCI, 2004).
Where “and” joins values, the source holds several entries; their conditions need not be identical. Identical values can stand only once. Toxic doses and inconclusive results are not listed. Rule for the calls: active = survival T/C of 150% or more; inactive = T/C below 125% in these data.

System: CD2F1 mice, L1210 leukemia ip, survival T/C
Experiment: NCI In Vivo Anticancer Drug Screen. Data for tumor model L1210 Leukemia (intraperitoneal) in CD2F1 (CDF1) mice
Conditions: higher = longer survival
Method in brief: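 Antitumor effect is scored in animals hosting a serially transplanted tumor. Values compare compound-dosed animals against vehicle-only controls as a simple quotient.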

[1] = endpoint: mean survival time, dose: 100.0 mg/kg/injection, schedule: Q04DX003 (ip), vehicle: saline with Tween-80
[2] = endpoint: mean survival time, dose: 200.0 mg/kg/injection, schedule: Q04DX003 (ip), vehicle: saline with Tween-80
[3] = endpoint: mean survival time, dose: 100.0 mg/kg/injection, schedule: Q04DX002 (ip), vehicle: saline with Tween-80

Measured: T/C

O=c1cc([O-])[n+](C2OC(CO)C(O)C2O)c2sccn12 (configuration not stated)
inactive: endpoint: median survival time, dose: 10.63 mg/kg/injection, schedule: Q01DX005 (ip), vehicle: water 102 % of control | endpoint: median survival time, dose: 12.5 mg/kg/injection, schedule: Q01DX005 (ip), vehicle: saline 102 % of control | endpoint: median survival time, dose: 21.25 mg/kg/injection, schedule: Q01DX005 (ip), vehicle: water 98 % of control | endpoint: median survival time, dose: 25.0 mg/kg/injection, schedule: Q01DX005 (ip), vehicle: saline 101 % of control | endpoint: median survival time, dose: 42.5 mg/kg/injection, schedule: Q01DX005 (ip), vehicle: water 98 % of control | endpoint: median survival time, dose: 50.0 mg/kg/injection, schedule: Q01DX005 (ip), vehicle: saline 98 % of control | endpoint: median survival time, dose: 85.0 mg/kg/injection, schedule: Q01DX005 (ip), vehicle: water 102 % of control | endpoint: median survival time, dose: 100.0 mg/kg/injection, schedule: Q01DX005 (ip), vehicle: saline 97 % of control | endpoint: median survival time, dose: 170.0 mg/kg/injection, schedule: Q01DX005 (ip), vehicle: water 100 % of control | endpoint: median survival time, dose: 200.0 mg/kg/injection, schedule: Q01DX005 (ip), vehicle: saline 98 % of control

N#CN=C(N)NC(=O)c1ccccc1
inactive: [1] 102 % of control | [2] 98 % of control

CC([NH-])C[NH-].[Cl][Pt+2][Cl] (configuration not stated)
inactive: endpoint: mean survival time, dose: 0.31 mg/kg/injection, schedule: Q01DX009 (ip), vehicle: saline with Tween-80 105 % of control | endpoint: mean survival time, dose: 0.62 mg/kg/injection, schedule: Q01DX009 (ip), vehicle: saline with Tween-80 107 % of control | endpoint: mean survival time, dose: 1.25 mg/kg/injection, schedule: Q01DX009 (ip), vehicle: saline with Tween-80 112 % of control | endpoint: mean survival time, dose: 2.5 mg/kg/injection, schedule: Q01DX009 (ip), vehicle: saline with Tween-80 105 % of control | endpoint: mean survival time, dose: 2.5 mg/kg/injection, schedule: Q04DX003 (ip), vehicle: saline with Tween-80 115 % of control | endpoint: mean survival time, dose: 5.0 mg/kg/injection, schedule: Q01DX009 (ip), vehicle: saline with Tween-80 86 % of control | endpoint: mean survival time, dose: 5.0 mg/kg/injection, schedule: Q04DX003 (ip), vehicle: saline with Tween-80 115 % of control

CC1c2ccccc2C=CN1C (configuration not stated)
inactive: endpoint: mean survival time, dose: 100.0 mg/kg/injection, schedule: Q04DX003 (ip), vehicle: saline sonified 95 % of control | endpoint: mean survival time, dose: 200.0 mg/kg/injection, schedule: Q04DX003 (ip), vehicle: saline sonified 106 % of control | endpoint: mean survival time, dose: 400.0 mg/kg/injection, schedule: Q04DX003 (ip), vehicle: saline sonified 105 % of control

O=C(O)c1[nH]c(=O)[nH]c(=O)c1F.[Ga]
active: endpoint: mean survival time, dose: 177.0 mg/kg/injection, schedule: Q01DX001 (ip), vehicle: saline with Tween-80 159 % of control
inactive: endpoint: mean survival time, dose: 54.0 mg/kg/injection, schedule: Q01DX001 (ip), vehicle: saline with Tween-80 123 % of control

ClCCN(CCCl)c1ccc(CCCCN2CCOCC2)cc1
inactive: endpoint: mean survival time, dose: 10.0 mg/kg/injection, schedule: Q01DX009 (ip), vehicle: saline 119 % of control | endpoint: mean survival time, dose: 40.0 mg/kg/injection, schedule: Q01DX009 (ip), vehicle: saline 103 % of control

CCN(CC)C(=S)SC
inactive: endpoint: mean survival time, dose: 75.0 mg/kg/injection, schedule: Q01DX001 (ip), vehicle: saline 104 % of control | endpoint: mean survival time, dose: 150.0 mg/kg/injection, schedule: Q01DX001 (ip), vehicle: saline 106 % of control

C#CC1(OC(=O)Nc2ccccc2)CCCCC1
inactive: [3] 100 % of control | endpoint: mean survival time, dose: 200.0 mg/kg/injection, schedule: Q04DX002 (ip), vehicle: saline with Tween-80 92 % of control

c1ccc(OP(Oc2ccccc2)Oc2ccccc2)cc1
inactive: endpoint: mean survival time, dose: 50.0 mg/kg/injection, schedule: Q04DX003 (ip), vehicle: saline 98 % of control | endpoint: mean survival time, dose: 100.0 mg/kg/injection, schedule: Q04DX003 (ip), vehicle: saline 104 % of control | endpoint: mean survival time, dose: 200.0 mg/kg/injection, schedule: Q04DX003 (ip), vehicle: saline 96 % of control

COC1=CCc2c(OC)ccc(OC)c2C1
inactive: endpoint: mean survival time, dose: 12.5 mg/kg/injection, schedule: Q01DX009 (ip), vehicle: other 103 % of control | endpoint: mean survival time, dose: 25.0 mg/kg/injection, schedule: Q01DX009 (ip), vehicle: other 103 % of control | endpoint: mean survival time, dose: 50.0 mg/kg/injection, schedule: Q01DX009 (ip), vehicle: other 93 % of control | endpoint: mean survival time, dose: 100.0 mg/kg/injection, schedule: Q01DX009 (ip), vehicle: other 95 % of control | endpoint: mean survival time, dose: 200.0 mg/kg/injection, schedule: Q01DX009 (ip), vehicle: other 88 % of control

CC(C)c1ccccc1NC1=NCCO1
inactive: endpoint: mean survival time, dose: 100.0 mg/kg/injection, schedule: Q04DX003 (ip), vehicle: Klucel (hydroxypropylcellulose) (HPC) 103 % of control | endpoint: mean survival time, dose: 200.0 mg/kg/injection, schedule: Q04DX003 (ip), vehicle: Klucel (hydroxypropylcellulose) (HPC) 90 % of control

C(N=Nc1ccccc1)=C(c1ccccc1)c1ccccc1
inactive: endpoint: mean survival time, dose: 100.0 mg/kg/injection, schedule: Q04DX002 (ip), vehicle: other 107 % of control | endpoint: mean survival time, dose: 200.0 mg/kg/injection, schedule: Q04DX002 (ip), vehicle: other 103 % of control | endpoint: mean survival time, dose: 400.0 mg/kg/injection, schedule: Q04DX002 (ip), vehicle: other 103 % of control

CC1(C)C2CC=C(CC3CC(=O)OC3=O)C1C2 (configuration not stated)
inactive: endpoint: mean survival time, dose: 75.0 mg/kg/injection, schedule: Q01DX001 (ip), vehicle: other 97 % of control | endpoint: mean survival time, dose: 150.0 mg/kg/injection, schedule: Q01DX001 (ip), vehicle: other 102 % of control | endpoint: mean survival time, dose: 300.0 mg/kg/injection, schedule: Q01DX001 (ip), vehicle: other 108 % of control

CC(=O)N(C)N=Nc1ccc(C(C)C)cc1
inactive: endpoint: mean survival time, dose: 9.37 mg/kg/injection, schedule: Q04DX003 (ip), vehicle: Klucel (hydroxypropylcellulose) (HPC) 97 % of control | endpoint: median survival time, dose: 2.3 mg/kg/injection, schedule: Q01DX009 (ip), vehicle: Klucel (hydroxypropylcellulose) (HPC) 116 % of control | endpoint: median survival time, dose: 4.6 mg/kg/injection, schedule: Q01DX009 (ip), vehicle: Klucel (hydroxypropylcellulose) (HPC) 110 % of control | endpoint: median survival time, dose: 9.37 mg/kg/injection, schedule: Q01DX009 (ip), vehicle: Klucel (hydroxypropylcellulose) (HPC) 116 % of control

Cc1ccc(N2CC=C(c3ccccc3)OP2(=O)N(CCCl)CCCl)cc1 (configuration not stated)
inactive: endpoint: mean survival time, dose: 31.25 mg/kg/injection, schedule: Q01DX001 (ip), vehicle: saline 100 % of control | endpoint: mean survival time, dose: 62.5 mg/kg/injection, schedule: Q01DX001 (ip), vehicle: saline 102 % of control | endpoint: mean survival time, dose: 125.0 mg/kg/injection, schedule: Q01DX001 (ip), vehicle: saline 100 % of control | endpoint: mean survival time, dose: 250.0 mg/kg/injection, schedule: Q01DX001 (ip), vehicle: saline 100 % of control | endpoint: mean survival time, dose: 500.0 mg/kg/injection, schedule: Q01DX001 (ip), vehicle: saline 100 % of control

COc1ccc(CC(=O)NCCc2ccc3c(c2)OCO3)cc1
inactive: endpoint: mean survival time, dose: 100.0 mg/kg/injection, schedule: Q01DX001 (ip), vehicle: saline with Tween-80 91 % of control | endpoint: mean survival time, dose: 200.0 mg/kg/injection, schedule: Q01DX001 (ip), vehicle: saline with Tween-80 87 % of control

[N-]=[N+]=NC1=C(Br)C(=O)OC1COC(=O)c1ccccc1 (configuration not stated)
inactive: endpoint: mean survival time, dose: 50.0 mg/kg/injection, schedule: Q04DX002 (ip), vehicle: saline with Tween-80 90 % of control | [3] 90 % of control

Nc1nc2c(ncn2-c2ccc(OCCNC(=O)Nc3cc(S(=O)(=O)F)ccc3Cl)cc2)c(=O)[nH]1 (tested in a mixture with another compound)
inactive: endpoint: mean survival time, dose: 75.0 mg/kg/injection, schedule: Q01DX001 (ip), vehicle: saline with Tween-80 92 % of control | endpoint: mean survival time, dose: 150.0 mg/kg/injection, schedule: Q01DX001 (ip), vehicle: saline with Tween-80 95 % of control

Cc1ccc(NC(=O)/C=C/C(=O)O)cc1
inactive: endpoint: mean survival time, dose: 100.0 mg/kg/injection, schedule: Q01DX009 (ip), vehicle: saline with Tween-80 105 % of control | endpoint: mean survival time, dose: 200.0 mg/kg/injection, schedule: Q01DX009 (ip), vehicle: saline with Tween-80 107 % of control | endpoint: mean survival time, dose: 400.0 mg/kg/injection, schedule: Q01DX009 (ip), vehicle: saline with Tween-80 103 % of control

CC1(C)OCC(CO)([N+](=O)[O-])CO1
inactive: [1] 96 % of control

Cc1cccc(-n2c(N)cc(=O)[nH]c2=S)n1
inactive: [1] 96 % of control

NCCCNCCCCNC(=O)C(O)NC(=O)CC(O)CCCCN=C(N)N (configuration not stated)
active: endpoint: median survival time, dose: 1.56 mg/kg/injection, schedule: Q01DX009 (ip), vehicle: saline 161 % of control and 181 % of control | endpoint: median survival time, dose: 3.0 mg/kg/injection, schedule: Q01DX009 (ip), vehicle: saline 162 % of control | endpoint: median survival time, dose: 3.12 mg/kg/injection, schedule: Q01DX009 (ip), vehicle: saline 164 % of control and 168 % of control and 210 % of control | endpoint: median survival time, dose: 6.0 mg/kg/injection, schedule: Q01DX009 (ip), vehicle: saline 207 % of control | endpoint: median survival time, dose: 6.25 mg/kg/injection, schedule: Q01DX009 (ip), vehicle: saline 164 % of control and 191 % of control and 219 % of control | endpoint: median survival time, dose: 12.0 mg/kg/injection, schedule: Q01DX009 (ip), vehicle: saline 219 % of control | endpoint: median survival time, dose: 12.5 mg/kg/injection, schedule: Q01DX009 (ip), vehicle: saline 173 % of control and 196 % of control and 217 % of control | endpoint: median survival time, dose: 100.0 mg/kg/injection, schedule: Q01DX009 (ip), vehicle: saline 206 % of control and 235 % of control

O=C(C/C(=N\N(C(=O)c1ccccc1)c1ccccc1)c1ccccc1)c1ccccc1
inactive: [1] 92 % of control | [2] 97 % of control | endpoint: mean survival time, dose: 400.0 mg/kg/injection, schedule: Q04DX003 (ip), vehicle: saline with Tween-80 100 % of control
